In PubChem BioAssay AID2060483 (Molecular Pharmacology Branch, DTP, NCI, 2025):

Test system: K24384-001-R-PDC complex spheroids, viability
Assay: Anticancer human tumor K24384-001-R-PDC patient-derived pancreatic adenocarcinoma cell line growth inhibition [GQUAD]
Settings: for IC50: curve of first compound; for viability, T/C: stronger effect = lower value
Source text: DNA G-quadruplex Stabilizer Agents in Combinations in Complex Spheroids
A high-throughput screen of multi-cell type tumor spheroids was designed to identify active combinations of DNA G-quadruplex stabilizer agents and targeted small molecules. Complex spheroids include a stromal component modeled by human endothelial cells (HUVEC) and fibroblasts modeled by human mesenchymal stem cells (MSCs). The concentration ranges selected for each drug and investigational agent were based upon clinically achievable concentrations if the clinical Cmax of the agent was known.
Compounds. The drugs and investigational agents: pidnarulex (CX-5461; NSC782164), APTO-253 (NSC789042), BRACO-19 (NSC847499), peposertib (NSC802822), ceralasertib (NSC780249), elimusertib (NSC800525), camonsertib (NSC841442), AZD-1390 (NSC803789), olaparib (NSC753686), talazoparib (NSC767125), ART-558 (NSC835418), sotorasib (NSC818433), MRTX-1133 (NSC836407), SN-38 (NSC673596), topotecan (NSC609699), etoposide (NSC141540), doxorubicin (NSC123127), gemcitabine (NSC613327), 5-fluorouracil (NSC19893), paclitaxel (NSC125973), vemurafenib (NSC761431), panobinostat (NSC761190), R-306465 (JNJ-16241199; NSC773264), adavosertib (NSC754352), TP-3654 (NSC805149), carboplatin (NSC241240), KSQ-4279 (NSC840948), and staurosporine (NSC755774) were obtained from the National Cancer Institute (NCI) Developmental Therapeutics Program Chemical Repository (34). The FDA-approved anticancer drug set is available from the NCI Developmental Therapeutics Program. […] The stock solutions were prepared in dimethyl sulfoxide (DMSO, Sigma-Aldrich, St. Louis, MO, cat. D2650) at 800-fold the tested concentration and stored at -70 degrees C prior to their use. All drugs and investigational agents were tested over a range starting from a high concentration at or near the clinical Cmax and decreasing in half-log increments. If the clinical Cmax for an agent had not been determined, the highest concentration tested was 10 microM.
2.3 Cell Culture. All cells were maintained in an incubator at 37 degrees C and 5% CO2 with 95% humidity. The PDC lines were cultured according to standard operating procedures established by the NCI PDMR. All PDCs were thawed and cultured in Matrigel-coated flasks prepared with a working solution of 1X Ham's F-12 nutrient mix, without supplementation (Invitrogen, cat. 11765054), 100 U/mL penicillin-streptomycin (Invitrogen, cat. 15140122), and 2.5% Matrigel (Corning Inc., cat. 354248) for the first three passages. The 857933-349-R-J2-PDC line was cultured in 6C/Colon 1B media, which includes advanced DMEM/F-12 (Thermo Fisher Scientific, cat. 12634028), 10 mM HEPES (Thermo Fisher Scientific, cat. 15630080), 1X GlutaMAX supplement (Thermo Fisher Scientific, cat. 35050061), 0.1 mg/mL primocin (InvivoGen, cat. ant-pm-2), 10% defined fetal bovine serum, heat inactivated (HyClone Laboratories Inc., cat. SH30070.03HI), 50% L-WRN conditioned media (ATCC, cat. CRL-3276), 1.25 mM N-Acetyl-L-cysteine (Sigma-Aldrich, cat. A9165), 10 mM nicotinamide (Sigma-Aldrich, cat. N0636), 1X B-27 supplement (Thermo Fisher Scientific, cat. 17504044), 1X N-2 supplement (Thermo Fisher Scientific, cat. 17502048), 10 microM Y-27632 dihydrochloride (Tocris Bioscience, cat. 1254), and 50 ng/mL human EGF recombinant protein (Thermo Fisher Scientific, cat. PHG0311). The 485176-168-R4-J1-PDC line was cultured in Panc media, which includes all 6C/Colon 1B media components plus 100 ng/mL human FGF-10 (Thermo Fisher Scientific, cat. 100-26), 500 nM SB-431542 (Selleckchem, cat. S1067), and gastrin (Tocris, cat. 3006).
[…]

[1] = second compound 0.0316 µM, first compound 0.0316 µM
[2] = second compound 0.0316 µM, first compound 0.1 µM
[3] = second compound 0.0316 µM, first compound 0.316 µM
[4] = second compound 0.0316 µM, first compound 1 µM
[5] = second compound 0.0316 µM, first compound 3.16 µM
[6] = second compound 0.0316 µM, first compound 10 µM
[7] = second compound 0.1 µM, first compound 0.0316 µM
[8] = second compound 0.1 µM, first compound 0.1 µM
[9] = second compound 0.1 µM, first compound 0.316 µM
[10] = second compound 0.1 µM, first compound 1 µM
[11] = second compound 0.1 µM, first compound 3.16 µM
[12] = second compound 0.1 µM, first compound 10 µM
[13] = second compound 0.316 µM, first compound 0.0316 µM
[14] = second compound 0.316 µM, first compound 0.1 µM
[15] = second compound 0.316 µM, first compound 0.316 µM
[16] = second compound 0.316 µM, first compound 1 µM
[17] = second compound 0.316 µM, first compound 3.16 µM
[18] = second compound 0.316 µM, first compound 10 µM
[19] = second compound 1 µM, first compound 0.0316 µM
[20] = second compound 1 µM, first compound 0.1 µM
[21] = second compound 1 µM, first compound 0.316 µM
[22] = second compound 1 µM, first compound 1 µM
[23] = second compound 1 µM, first compound 3.16 µM
[24] = second compound 1 µM, first compound 10 µM
[25] = second compound 3.16 µM, first compound 0.0316 µM
[26] = second compound 3.16 µM, first compound 0.1 µM
[27] = second compound 3.16 µM, first compound 0.316 µM
[28] = second compound 3.16 µM, first compound 1 µM
[29] = second compound 3.16 µM, first compound 3.16 µM
[30] = second compound 3.16 µM, first compound 10 µM
[31] = second compound 10 µM, first compound 0.0316 µM
[32] = second compound 10 µM, first compound 0.1 µM
[33] = second compound 10 µM, first compound 0.316 µM
[34] = second compound 10 µM, first compound 1 µM
[35] = second compound 10 µM, first compound 3.16 µM
[36] = second compound 10 µM, first compound 10 µM
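Also: spheroids exposed to compounds for seven days.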

SMILES: C=CC(=O)N1CCN(c2nc(=O)n(-c3c(C)ccnc3C(C)C)c3nc(-c4c(O)cccc4F)c(F)cc23)C(C)C1 (centres undefined) + CN(C)c1ccc(Nc2c3ccc(NC(=O)CCN4CCCC4)cc3nc3cc(NC(=O)CCN4CCCC4)ccc23)cc1
- IC50 (second compound 0.0316 µM): > 10000 nM
- IC50 (second compound 0.1 µM): > 10000 nM
- IC50 (second compound 0.316 µM): > 10000 nM
- IC50 (second compound 1 µM): > 10000 nM
- IC50 (second compound 3.16 µM): > 10000 nM
- IC50 (second compound 10 µM): > 10000 nM
- viability, T/C [1]: 95.5%
- viability, T/C [2]: 93.2%
- viability, T/C [3]: 107%
- viability, T/C [4]: 104%
- viability, T/C [5]: 99.6%
- viability, T/C [6]: 93.3%
- viability, T/C [7]: 100%
- viability, T/C [8]: 102%
- viability, T/C [9]: 112%
- viability, T/C [10]: 121%
- viability, T/C [11]: 123%
- viability, T/C [12]: 87.8%
- viability, T/C [13]: 100%
- viability, T/C [14]: 101%
- viability, T/C [15]: 105%
- viability, T/C [16]: 96.6%
- viability, T/C [17]: 128%
- viability, T/C [18]: 98.6%
- viability, T/C [19]: 101%
- viability, T/C [20]: 129%
- viability, T/C [21]: 113%
- viability, T/C [22]: 115%
- viability, T/C [23]: 147%
- viability, T/C [24]: 85.7%
- viability, T/C [25]: 101%
- viability, T/C [26]: 100%
- viability, T/C [27]: 100%
- viability, T/C [28]: 93%
- viability, T/C [29]: 110%
- viability, T/C [30]: 79%
- viability, T/C [31]: 81.6%
- viability, T/C [32]: 99.7%
- viability, T/C [33]: 82.3%
- viability, T/C [34]: 109%
- viability, T/C [35]: 89%
- viability, T/C [36]: 62.2%

SMILES: CC1COCCN1c1cc(C2(O)CC3CCC(C2)O3)c2cnn(-c3ccn[nH]3)c2n1 (centres undefined) + CN(C)c1ccc(Nc2c3ccc(NC(=O)CCN4CCCC4)cc3nc3cc(NC(=O)CCN4CCCC4)ccc23)cc1
- IC50 (second compound 0.0316 µM): 103 nM
- IC50 (second compound 0.1 µM): 74.6 nM
- IC50 (second compound 0.316 µM): 74.3 nM
- IC50 (second compound 1 µM): 68.6 nM
- IC50 (second compound 3.16 µM): 61.6 nM
- IC50 (second compound 10 µM): 119 nM
- viability, T/C [1]: 56.5%
- viability, T/C [2]: 52%
- viability, T/C [3]: 33.5%
- viability, T/C [4]: 23.8%
- viability, T/C [5]: 25.4%
- viability, T/C [6]: 14.3%
- viability, T/C [7]: 68%
- viability, T/C [8]: 43.9%
- viability, T/C [9]: 29.6%
- viability, T/C [10]: 25.1%
- viability, T/C [11]: 26.6%
- viability, T/C [12]: 15%
- viability, T/C [13]: 70.3%
- viability, T/C [14]: 44%
- viability, T/C [15]: 24.6%
- viability, T/C [16]: 26%
- viability, T/C [17]: 27.2%
- viability, T/C [18]: 14.1%
- viability, T/C [19]: 62.8%
- viability, T/C [20]: 45%
- viability, T/C [21]: 27.1%
- viability, T/C [22]: 27.7%
- viability, T/C [23]: 27.3%
- viability, T/C [24]: 13.3%
- viability, T/C [25]: 63.2%
- viability, T/C [26]: 40.5%
- viability, T/C [27]: 24.9%
- viability, T/C [28]: 27.9%
- viability, T/C [29]: 24.9%
- viability, T/C [30]: 12.9%
- viability, T/C [31]: 76.2%
- viability, T/C [32]: 48.5%
- viability, T/C [33]: 35.7%
- viability, T/C [34]: 32.5%
- viability, T/C [35]: 25.4%
- viability, T/C [36]: 12.3%
